Experimental data as given in patent US6410790B1, “3-amin3-arylpropan-1-ol compounds, their preparation and use” (priority 1999, dated 2002).

Tests used:
[1] = tested on: phenylquinone-induced writhing reaction; assay: phenylquinone-induced writhing test in mice; assay type: in vivo; conditions: male NMRI mice, phenylquinone i.p. 10 minutes later; for inhibition in vivo at 10 mg/kg: Mus musculus, iv, 10 min, 10 mg/kg intravenously
Method: Analgesic Effect in the Writhing Test in Mice
The analgesic effect was investigated in the phenylquinone-induced writhing test in mice (as modified by I. C. Hendershot and J. Forsaith (1959) J. Pharmacol. Exp. Ther. 125, 237-240). Male NMRI mice weighing 25 to 30 g were used for the test. Groups of 10 animals each received by intraperitoineal application, for each substance dose, 0.3 ml/mouse of a 0.02% aqueous solution of phenylquinone (phenylbenzoquinone, Sigma Company, Deisenhofen; solution prepared with addition of 5% of ethanol and kept in a water bath at 45° C.) 10 minutes after intravenous administration of the test substances. The animals were placed individually in observation cages. The number of pain-induced stretching movements (so-called writhing reactions=straightening of the body together with stretching of the rear extremities) was measured by means of a push-button counter 5 to 20 minutes after administration of the phenylquinone. Animals that had received only physiological saline solution served as controls. All substances were tested in the standard dose of 10 mg/kg. The percentage inhibition (% inhibition) of the writhing reaction produced by a substance was calculated according to the following formula: [formula]

NA transporter = molecular target: T1, NA transporter (Rattus norvegicus, UniProt Q63380); assay: synaptosomal noradrenaline uptake inhibition (NA uptake inhibition); assay type: biochemical; conditions: for NA Uptake Inhibition at 1 μM: 1 μM in the assay, synaptosomes from rat hypothalamus; for inhibition at 1 µM: read-out: NA Uptake Inhibition at 1 μM, 1 μM in the assay, synaptosomes from rat hypothalamus
T1 construct: synaptosomes are isolated fresh from rat brains; from tissue; host or cells: rat hypothalamus synaptosomes (P2 fraction)
T1 sequence (Q63380 1-617): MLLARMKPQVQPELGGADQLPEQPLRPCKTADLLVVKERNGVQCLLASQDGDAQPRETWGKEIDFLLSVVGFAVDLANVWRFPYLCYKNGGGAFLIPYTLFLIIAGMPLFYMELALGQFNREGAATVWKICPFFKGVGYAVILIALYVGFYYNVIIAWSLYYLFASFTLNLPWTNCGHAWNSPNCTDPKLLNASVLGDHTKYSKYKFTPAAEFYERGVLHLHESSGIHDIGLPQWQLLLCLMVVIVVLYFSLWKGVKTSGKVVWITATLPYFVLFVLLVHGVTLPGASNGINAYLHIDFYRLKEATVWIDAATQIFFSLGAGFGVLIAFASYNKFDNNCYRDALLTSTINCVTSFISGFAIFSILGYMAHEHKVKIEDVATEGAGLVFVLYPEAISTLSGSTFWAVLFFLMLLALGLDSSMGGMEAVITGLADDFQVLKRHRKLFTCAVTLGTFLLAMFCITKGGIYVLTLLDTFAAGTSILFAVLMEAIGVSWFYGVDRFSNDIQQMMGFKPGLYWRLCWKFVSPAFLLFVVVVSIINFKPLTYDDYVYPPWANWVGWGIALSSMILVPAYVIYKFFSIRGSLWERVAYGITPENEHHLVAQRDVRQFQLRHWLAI
Method: In order to carry out these in vitro studies, synaptosomes are isolated fresh from rat brains. In each case a so-called “P2” fraction is used, which is prepared according to the protocol of Gray and Whittaker (E. G. Gray and V. P. Whittaker (1962) J. Anat. 76, 79-88).
(in each case N=4, i.e. mean values±SEM from 4 independent series of experiments that were carried out in the form of triple parallel experiments).
(§1) For this purpose IC50 values are obtained, which can be converted to inhibitor constants (Ki) according to the “Cheng-Prusoff equation” (Y. C. Clieng and W. H. Prusoff (1973) Biochem. Pharmacol. 22, 3099-3108). The IC50 values were obtained by means of the computer program “Figure P” (version 6.0, Biosoft, Cambridge, England). Km values were calculated according to Lineweaver and Burk (H. Lineweaver and D. Burk (1934) J. Am. Chem. Soc. 56, 658-666). The “Ligand” computer program (version 4, Biosoft, England) was used to obtain Ken values.

[2] = tested on: benzothiazepine binding site of the L-type calcium channel; assay: Diltiazem binding, L calcium channel; set-up: species or system rat; conditions: for Diltiazem Binding at 10 μM: percentage inhibition, [3H]-cis-(+)-diltiazem 5 nM, rat cerebral cortex membranes
Method: Binding Investigations in the L Calcium Channel
Benzothiazepine Binding Site (Diltiazem Binding)
The biological membrane material was isolated from the rat cerebral cortex. [^3H]-cis-(+)-diltiazem (5 nM in the assay) was used as ligand. The material was incubated for 20 minutes at 25° C. The radioactivity that is measured in the presence of (±)-diltiazem (10^−6 M in the assay) is defined as non-specific binding. After completion of incubation the non-bound fraction of the radioactive ligand is separated by means of a filtration process using Whatman Glasfiber GF/B membranes. The membranes are washed and the radioactivity is then measured using a β-counter. The method is based on the details published by Schoemaker and Langer (H. Schoemaker and S. Z. Langer (1985) Eur. J. Pharmacol. 111, 273-277).
as §1

[3] = tested on: binding site 2 of the sodium channel; assay: BTX binding, sodium channel; conditions: rat cerebral cortex synaptosomes; for BTX Binding at 10 μM: percentage inhibition, [3H]-batrachotoxin A20 α-benzoate 10 nM
Method: Binding Investigations in the Sodium Channel
Binding Site 2 (BTX Binding)
The binding site 2 of the sodium channel is the so-called batrachotoxin (BTX) binding site. [^3H]-batrachlotoxin A20 α-benzoate (10 nM in the assay) was used as ligand. These ion channel particles (synaptosomes) were concentrated from rat cerebral cortex according to the procedure of Gray and Whittaker (E. G. Gray and V. P. Whittaker (1962) J. Anat. 76, 79-88). The radioactivity that is measured in the presence of veratridine (0.3 mM in the assay) is defined as non-specific binding. The material was incubated at 37° C. for 120 minutes. The assay conditions are carried out according to the protocol published by Pauwels, Leysen and Laduron (P. J. Pauwels, J. E. Leysen and P. M. Laduron (1986) Eur. J. Pharmacol. 124, 291-298).
(N=3, i.e. mean values±SEM from 3 independent series of experiments that were carried out in the form of triple parallel experiments).
as §1

Row | Compound | % Inhibition of the writhing reaction at 10 mg/kg intravenously [1] [%] | NA Uptake Inhibition at 1 μM (NA transporter) [%] | Diltiazem Binding at 10 μM [2] [%] | BTX Binding at 10 μM [3] [%] | inhibition in vivo at 10 mg/kg [1] [%] | inhibition at 1 µM (NA transporter) [%] | Kd ([3]; radioligand, N=3, mean±SEM, read-out: KD value for this binding site) [nM] | Kd ([2]; radioligand, rat cerebral cortex, N=3, mean±SEM, read-out: KD value for this high-affinity binding site) [nM]
1 | COc1cccc(C(C2CCCCC2(O)c2cccc(Cl)c2)N(C)C)c1.Cl (centres unmarked) [Example 9] | 73 | 62 | 91 | 89 | – | – | – | –
2 | COc1cccc(CC2(O)CCCCC2C(c2ccccc2)N(C)C)c1.Cl (centres unmarked) [Example 13, 2-(dimethylaminophenylmethyl)-1-(3-methoxybenzyl)cyclohexanol, hydrochloride] | – | – | 88 | 94 | 100 | 95 | – | –
3 | CN(C)C(c1ccccc1)C1CCCCC1(O)c1ccc(O)cc1.Cl (centres unmarked) [Example 20, 4-[2-(dimethylaminophenylmethyl)-1-hydroxycyclohexyl]phenol, hydrochloride] | – | – | 69 | 68 | 96 | 68 | – | –
4 | CN(C)C(c1ccccc1)C1CCCCC1(O)Cc1ccc(Cl)cc1.Cl (centres unmarked) [Example 23, 1-(4-chlorobenzyl)-2-(dimethylaminophenylmethyl)-1-cyclohexanol, hydrochloride] | – | – | 100 | 94 | 100 | 99 | – | –
5 | CN(C)C(c1ccccc1)C1CCCCC1(O)Cc1ccccc1F.Cl (centres unmarked) [Example 24, 2-(dimethylaminophenylmethyl)-1-(2-fluorobenzyl)cyclohexanol, hydrochloride] | – | – | 93 | 92 | 97 | 98 | – | –
6 | CN(C)C(c1ccccc1)C1CCCCC1(O)Cc1ccc(F)cc1.Cl (centres unmarked) [Example 25, 2-(dimethylaminophenylmethyl)-1-(4-fluorobenzyl)cyclohexanol, hydrochloride] | – | – | 85 | 91 | 100 | 98 | – | –
7 | COc1ccc(OC)c(C2(O)CCCCC2C(c2ccccc2)N(C)C)c1.Cl (centres unmarked) [Example 26, 1-(2,5-dimethoxyphenyl)-2-(dimethylaminophenylmethyl)cyclohexanol, hydrochloride] | – | – | 87 | 85 | 94 | 5 | – | –
8 | CN(C)C(c1ccccc1)C1CCCCC1(O)Cc1ccc(F)cc1Cl.Cl (centres unmarked) [Example 27, 1-(2-chloro-4-fluorobenzyl)-2-(dimethylaminophenylmethyl)cyclohexanol, hydrochloride] | – | – | 96 | 97 | 82 | 89 | – | –
9 | CN(C)C(c1ccccc1)C1CCCCC1(O)Cc1ccccc1Cl.Cl (centres unmarked) [Example 30, 1-(2-chlorobenzyl)-2-(dimethylaminophenylmetlhyl)cyclohexanol, hydrochloride] | 85 | 98 | 98 | 96 | – | – | – | –
10 | COc1cccc(C(C2CCCCC2(O)c2ccc3c(c2)OCO3)N(C)C)c1.Cl (centres unmarked) [Example 31, 1-benzo[1,3]dioxol-5-yl-2-[dimethylamino-(3-methoxyphenyl)methyl]cyclohexanol, hydrochloride] | – | – | 90 | 85 | 76 | 43 | – | –
11 | CN(C)C(c1ccccc1)C1CCCCC1(O)Cc1cccc(Cl)c1.Cl (centres unmarked) [Example 32, 1-(3-chlorobenzyl)-2-(dimethylaminophenylmethyl)cyclohexanol, hydrochloride] | – | – | 98 | 94 | 100 | 100 | – | –
12 | CN(C)C(c1ccccc1)C1CCCCC1(O)Cc1ccc(Cl)cc1Cl.Cl (centres unmarked) [Example 33, 1-(2,4-dichlorobenzyl)-2-(dimethylaminophenylmethyl)cyclohexanol, hydrochloride] | – | – | 86 | 98 | 84 | 83 | – | –
13 | CN(C)C(c1ccccc1)(c1cccc(Oc2ccccc2)c1)C1CCCCC1(O)Cc1ccccc1.Cl (centres unmarked) [Example 34, 1-benzyl-2-[dimethylaminophenyl-(3-phenoxyphenyl)methyl]cyclohexanol, hydrochloride] | – | – | 100 | 100 | 99 | 96 | – | –
14 | COc1cccc(C(c2ccccc2)(C2CCCCC2(O)Cc2ccccc2)N(C)C)c1.Cl (centres unmarked) [Example 35, 1-benzyl-2-[dimethylaminophenyl-(3-methoxyphenyl)methyl]cyclohexanol, hydrochloride] | – | – | 87 | 92 | 81 | 100 | – | –
15 | CN(C)C(c1ccccc1)C1CCCCC1(O)Cc1cccc(C(F)(F)F)c1.Cl (centres unmarked) [Example 36, 2-(dimethylaminophenylmethyl)-1-(3-trifluoromethylbenzyl)cyclohexanol, hydrochloride] | – | – | – | 98 | 100 | 91 | – | –
16 | COc1cccc(CC2(O)CCCCC2C(c2cccc(OC)c2)N(C)C)c1.Cl (centres unmarked) [Example 37, 2-(dimethylamino-(3-methoxyphenyl)methyl]-1-(3-methoxybenzyl)cyclohexanol, hydrochloride] | – | – | 94 | 90 | 93 | 100 | – | –
17 | CN(C)C(c1ccccc1Cl)C1CCCCC1(O)c1ccc2ccccc2c1.Cl (centres unmarked) [Example 38, 2-[(2-chlorophenyl)dimethylaminomethyl]-1-naphthalene-2-ylcyclohexanol, hydrochloride] | – | – | 67 | 97 | 85 | 17 | – | –
18 | CN(C)C(c1ccc(Cl)c(Cl)c1)C1CCCCC1(O)Cc1ccccc1.Cl (centres unmarked) [Example 39, 1-benzyl-2-[(3,4-dichlorophenyl)dimethylaminomethyl]cyclohexanol, hydrochloride] | – | – | 76 | 97 | 94 | 61 | – | –
19 | CN(C)C(c1ccc(Cl)c(Cl)c1)C1CCCCC1(O)CCc1ccccc1.Cl (centres unmarked) [Example 40, 2-[(3,4-dichlorophenyl)dimethylaminomethyl]-1-phenethylcyclohexanol, hydrochloride] | – | – | 86 | 98 | 72 | 58 | – | –
20 | [^3H]-batrachlotoxin A20 α-benzoate [reference compound] | – | – | – | – | – | – | 24.6 ± 1.56 | –
21 | [^3H]-cis-(+)-diltiazem [reference compound] | – | – | – | – | – | – | – | 4.1 ± 0.75
